In patent publication US8008258B2, “Cop 1 for treatment of inflammatory bowel diseases” (Yeda Research and Development Co. Ltd., priority 2003, dated 2011):
Marks after values point to notes of the source that are not given here.

Assays:
Assay type in all cases: in vivo
TNBS-induced colitis [1] = assay: TNBS-induced colitis in SJL/J mice, various GA treatment modes; parameters: key to Macroscopic scoring of colon damage: Ulceration (max 10): 0 = completely normal, 10 = most severe ulceration; key to Macroscopic scoring of colon damage: Adhesion (max 2): adhesion score, 0 to 2; key to Macroscopic scoring of colon damage: Diarrhea (max 1): diarrhea score, 0 to 1; key to Macroscopic scoring of colon damage: Thickness (max 1): thickness score, 0 to 1; conditions: for Decrease in the total histological score: statistically insignificant; for Macroscopic scoring of colon damage: Adhesion (max 2) / Macroscopic scoring of colon damage: Diarrhea (max 1) / Macroscopic scoring of colon damage: Thickness (max 1) / Macroscopic scoring of colon damage: Total Score (max 14) / Macroscopic scoring of colon damage: Ulceration (max 10): scoring 5 days after disease induction
Method: (§1) Induction of cholitis in mice. TNBS-colitis was induced by rectal instillation of 2,4,6-trinitrobenzene sulfonic acid 5% (w/v), mixed with an equal volume of ethanol, into anesthetized mice (100 μl/mouse). Each treatment group included 6-12 mice. Mice that died before day 4 were considered as treatment casualties and were not taken into consideration.
(§2) Assessment of colitis. Weight changes and survival were monitored daily. Five to eight days following TNBS instillation, mice were sacrificed and macroscopic as well as microscopic colonic damage was evaluated.
(§3) Macroscopic colonic scoring. Gross colonic damage was graded according to Reuter et al. (1996), using the combined values of the four standard macroscopic parameters: degree of colonic ulcerations (scale from 0—completely normal, to 10—most severe); intestinal and peritoneal adhesions (0 to 2); diarrhea (0 to 1); and thickness (0 to 1). The total score is the arithmetic sum of the four scores. The evaluation was performed in a blind procedure.
(§4) Microscopic scoring. Proximal, medial, and distal portions of colon were fixed in 10% phosphate-buffered formalin. Paraffin-embedded sections were stained with hematoxylin and eosin. The degree of histological damage and inflammation was graded according to Elson et al. (1996) using the combined values of the four microscopic parameters: extent (scale from 0—completely normal, to 2—involving more than one segment); inflammation (0—none to 3—severe); damage (0 to 3—severe transmural); and regeneration (0—complete re-eptihelization to 3—none). The total score is the arithmetic sum of the four scores. The evaluation was performed in a blind procedure.
Oral treatment—250 μg/day in PBS, fed by gastric intubation with an 18-gauge stainless steel feeding needle. Unless otherwise stated, feedings were performed on days-7, -5, -3, -1, 0, 2, 4 and 6, relative to the day of TNBS instillation. […]
To explore whether the beneficial effect of GA on TNBS-induced colitis is restricted to oral administration in the BALB/c strain or represents a more general effect, we studied the ability of GA administered by different routes and dosages to inhibit TNBS-induced colitis in two additional strains of mice.

TNBS-induced colitis [2] = assay: TNBS-induced colitis in BALB/c mice, oral GA treatment; parameters: key to Macroscopic scoring of colon damage: Ulceration (max 10): 0 = completely normal, 10 = most severe ulceration; key to Macroscopic scoring of colon damage: Adhesion (max 2): adhesions score 0 to 2; key to Macroscopic scoring of colon damage: Diarrhea (max 1): diarrhea score 0 to 1; key to Macroscopic scoring of colon damage: Thickness (max 1): thickness score 0 to 1
Method: as §1, §2, §3, §4
Oral treatment—250 μg/day in PBS, fed by gastric intubation with an 18-gauge stainless steel feeding needle. Unless otherwise stated, feedings were performed on days-7, -5, -3, -1, 0, 2, 4 and 6, relative to the day of TNBS instillation.
Colitis was induced by TNBS in 50% ethanol. […] Colonic scoring was performed 7 or 8 days after disease induction. Mice that died during the first 2 days (usually around 20% in all groups) were considered as treatment casualties and thus are not presented; each group contained 4-7 mice that survived after day 2.

DSS-induced colitis = assay: Dextran sulfate sodium (DSS)-induced colitis in C57BL/6 mice; conditions: GA 2.5 mg/day SC daily, by day 7 after DSS feeding, preliminary experiment
Method: Feeding mice for several days with dextran sulfate sodium (DSS) polymers in the drinking water induces an acute colitis with bloody diarrhea, histological damage, and inflammation (Wirtz and Neurath, 2000).
Female C57BL/6, 7 weeks old mice, were fed with 2.5% DSS solution in the drinking water for 7 days. GA was administered subcutaneously by daily injections—2.5 mg/day, in PBS, starting either 7 days before or in the same day of DSS feeding.

[3] = GA injected daily (from day −7), 2.5 mg/mouse SC
[4] = GA oral every other day (from day −7), 0.25 mg, 8 feedings
[5] = Average of three experiments, GA oral 250 μg/mouse every other day from day −7, scoring 7 or 8 days after induction
[6] = Exp. No. 1, GA oral 250 μg/mouse every other day from day −7, scoring 7 or 8 days after induction
[7] = Exp. No. 2, GA oral 250 μg/mouse every other day from day −7, scoring 7 or 8 days after induction
[8] = Exp. No. 3, GA oral 250 μg/mouse every other day from day −7, scoring 7 or 8 days after induction
[9] = GA no colitis (GA oral without TNBS induction)
[10] = Timing study, GA oral 250 μg/mouse every other day starting day 0, 8 feedings
[11] = Timing study, GA oral 250 μg/mouse every other day starting day +2, 6 feedings
[12] = Timing study, GA oral 250 μg/mouse every other day starting day −3, 8 feedings
[13] = Timing study, GA oral 250 μg/mouse every other day starting day −7, 8 feedings

glatiramer acetate [GA]
Reduction in macroscopic score versus untreated control (TNBS-induced colitis [1]; GA daily injections from day −7): 2.7 fold | Mortality (succumbed) (TNBS-induced colitis [1]; daily injection of GA): 8% | Inhibition of weight loss caused by TNBS colitis (TNBS-induced colitis [1]; daily-injected mice): major significant inhibition of weight loss | Decrease in the total histological score (TNBS-induced colitis [1]; feeding): 0.5 points | Decrease in the total histological score (TNBS-induced colitis [1]; injection): 1.8 points | Decrease in the total macroscopic score versus untreated mice (TNBS-induced colitis [1]; oral treatment with GA): 1.7 Points | Mortality rate (TNBS-induced colitis [1]; oral treatment with GA, by day 5): 18% | Inhibition of weight loss caused by TNBS colitis (TNBS-induced colitis [1]; orally-treated mice): modest, statistically insignificant, inhibition of weight loss | Macroscopic scoring of colon damage: Adhesion (max 2) (TNBS-induced colitis [1]; [3]): 1.2 | Macroscopic scoring of colon damage: Diarrhea (max 1) (TNBS-induced colitis [1]; [3]): 0.5 | Macroscopic scoring of colon damage: Thickness (max 1) (TNBS-induced colitis [1]; [3]): 0.5 | Macroscopic scoring of colon damage: Total Score (max 14) (TNBS-induced colitis [1]; [3]): 5.7* | Macroscopic scoring of colon damage: Ulceration (max 10) (TNBS-induced colitis [1]; [3]): 3.5 | Macroscopic scoring of colon damage: Adhesion (max 2) (TNBS-induced colitis [1]; [4]): 1.8 | Macroscopic scoring of colon damage: Diarrhea (max 1) (TNBS-induced colitis [1]; [4]): 0.9 | Macroscopic scoring of colon damage: Thickness (max 1) (TNBS-induced colitis [1]; [4]): 0.9 | Macroscopic scoring of colon damage: Total Score (max 14) (TNBS-induced colitis [1]; [4]): 10.7 | Macroscopic scoring of colon damage: Ulceration (max 10) (TNBS-induced colitis [1]; [4]): 7.1 | Macroscopic scoring of colon damage: Adhesion (max 2) (TNBS-induced colitis [2]; [5]): 0.4 | Macroscopic scoring of colon damage: Diarrhea (max 1) (TNBS-induced colitis [2]; [5]): 0.2 | Macroscopic scoring of colon damage: Thickness (max 1) (TNBS-induced colitis [2]; [5]): 0.0 | Macroscopic scoring of colon damage: Ulceration (max 10) (TNBS-induced colitis [2]; [5]): 2.1 | Macroscopic scoring of colon damage: Adhesion (max 2) (TNBS-induced colitis [2]; [6]): 0.6 | Macroscopic scoring of colon damage: Diarrhea (max 1) (TNBS-induced colitis [2]; [6]): 0.0 | Macroscopic scoring of colon damage: Thickness (max 1) (TNBS-induced colitis [2]; [6]): 0.0 | Macroscopic scoring of colon damage: Total Score (max 14) (TNBS-induced colitis [2]; [6]): 1.6* | Macroscopic scoring of colon damage: Ulceration (max 10) (TNBS-induced colitis [2]; [6]): 1.0 | Macroscopic scoring of colon damage: Adhesion (max 2) (TNBS-induced colitis [2]; [7]): 0.5 | Macroscopic scoring of colon damage: Diarrhea (max 1) (TNBS-induced colitis [2]; [7]): 0.5 | Macroscopic scoring of colon damage: Thickness (max 1) (TNBS-induced colitis [2]; [7]): 0.0 | Macroscopic scoring of colon damage: Total Score (max 14) (TNBS-induced colitis [2]; [7]): 4.4* | Macroscopic scoring of colon damage: Ulceration (max 10) (TNBS-induced colitis [2]; [7]): 3.4 | Macroscopic scoring of colon damage: Adhesion (max 2) (TNBS-induced colitis [2]; [8]): 0.1 | Macroscopic scoring of colon damage: Diarrhea (max 1) (TNBS-induced colitis [2]; [8]): 0.0 | Macroscopic scoring of colon damage: Thickness (max 1) (TNBS-induced colitis [2]; [8]): 0.0 | Macroscopic scoring of colon damage: Total Score (max 14) (TNBS-induced colitis [2]; [8]): 2.1* | Macroscopic scoring of colon damage: Ulceration (max 10) (TNBS-induced colitis [2]; [8]): 2.0 | Macroscopic scoring of colon damage: Adhesion (max 2) (TNBS-induced colitis [2]; [9]): 0.0 | Macroscopic scoring of colon damage: Diarrhea (max 1) (TNBS-induced colitis [2]; [9]): 0.0 | Macroscopic scoring of colon damage: Thickness (max 1) (TNBS-induced colitis [2]; [9]): 0.0 | Macroscopic scoring of colon damage: Total Score (max 14) (TNBS-induced colitis [2]; [9]): 0.0 | Macroscopic scoring of colon damage: Ulceration (max 10) (TNBS-induced colitis [2]; [9]): 0.0 | Reduction in disease severity (total macroscopic score) versus control (TNBS-induced colitis [2]; GA oral feedings started seven days before TNBS, total of 8 feedings every other day): 5.2 fold | Reduction in disease severity (total macroscopic score) versus control (TNBS-induced colitis [2]; GA oral treatment started on the day of TNBS inoculation, or two days after disease induction): 2.2 fold | Reduction in disease severity (total macroscopic score) versus control (TNBS-induced colitis [2]; GA oral treatment started three days before induction): 2.75 fold | Mortality due to the disease process (TNBS-induced colitis [2]; GA oral, 8 days after induction): 20% | Reduction of average histological score versus colitis group (TNBS-induced colitis [2]; GA oral, day 7, p=0.007): 2.8 folds | Average histological score (from a maximal score of 12.0) (TNBS-induced colitis [2]; GA oral, mice surviving till day 7): 2.8 | Histological or macroscopic damage (TNBS-induced colitis [2]; GA treatment without TNBS induction): did not result in any histological or macroscopic damage | Macroscopic scoring of colon damage: Adhesion (max 2) (TNBS-induced colitis [2]; [10]): 0.7 | Macroscopic scoring of colon damage: Diarrhea (max 1) (TNBS-induced colitis [2]; [10]): 0.0 | Macroscopic scoring of colon damage: Thickness (max 1) (TNBS-induced colitis [2]; [10]): 0.0 | Macroscopic scoring of colon damage: Total Score (max 14) (TNBS-induced colitis [2]; [10]): 5.0* | Macroscopic scoring of colon damage: Ulceration (max 10) (TNBS-induced colitis [2]; [10]): 4.3 | Macroscopic scoring of colon damage: Adhesion (max 2) (TNBS-induced colitis [2]; [11]): 0.3 | Macroscopic scoring of colon damage: Diarrhea (max 1) (TNBS-induced colitis [2]; [11]): 0.0 | Macroscopic scoring of colon damage: Thickness (max 1) (TNBS-induced colitis [2]; [11]): 0.0 | Macroscopic scoring of colon damage: Total Score (max 14) (TNBS-induced colitis [2]; [11]): 5.0* | Macroscopic scoring of colon damage: Ulceration (max 10) (TNBS-induced colitis [2]; [11]): 4.7 | Macroscopic scoring of colon damage: Adhesion (max 2) (TNBS-induced colitis [2]; [12]): 0.5 | Macroscopic scoring of colon damage: Diarrhea (max 1) (TNBS-induced colitis [2]; [12]): 0.0 | Macroscopic scoring of colon damage: Thickness (max 1) (TNBS-induced colitis [2]; [12]): 0.0 | Macroscopic scoring of colon damage: Total Score (max 14) (TNBS-induced colitis [2]; [12]): 4.0* | Macroscopic scoring of colon damage: Ulceration (max 10) (TNBS-induced colitis [2]; [12]): 3.5 | Macroscopic scoring of colon damage: Adhesion (max 2) (TNBS-induced colitis [2]; [13]): 0.1 | Macroscopic scoring of colon damage: Diarrhea (max 1) (TNBS-induced colitis [2]; [13]): 0.0 | Macroscopic scoring of colon damage: Thickness (max 1) (TNBS-induced colitis [2]; [13]): 0.0 | Macroscopic scoring of colon damage: Total Score (max 14) (TNBS-induced colitis [2]; [13]): 2.1* | Macroscopic scoring of colon damage: Ulceration (max 10) (TNBS-induced colitis [2]; [13]): 2.0 | Decrease of total macroscopic damage versus control (TNBS-induced colitis [2]; average of three experiments, GA oral 250 μg/mouse, alternate days from day −7, 8 feedings): 3.8 fold | Macroscopic grade of representative colons (FIG. 1A) (TNBS-induced colitis [2]; colons from two TNBS-induced mice treated orally with GA (0.25 mg/mouse, 8 feedings), 7 days after TNBS, focal hyperemia only): 1 | Maximum weight loss (of body weight) (TNBS-induced colitis [2]; mice fed with GA, by day 3 after TNBS inoculation): 5% | Complete restoration of original weight (TNBS-induced colitis [2]; mice fed with GA, day after TNBS inoculation): ≤ 5 days | Maximum weight loss (DSS-induced colitis; injected from day 0): 4% | Maximum weight loss (DSS-induced colitis; injected from day −7): 7%
